According to the NIST ThermoML archive (doi:10.1016/j.jct.2017.02.023):
Numbers after ± are expanded uncertainties.

How the values were obtained:
[1] = xn = mol fraction of the nth substance listed; conditions: 81.5 kPa, Liquid, Vibrating tube method
[2] = refractive index (Na D-line) (dimensionless); xn = mol fraction of the nth substance listed; conditions: 81.5 kPa, Liquid, Standard Abbe refractometry

CNC1CCCCC1 [N-methylcyclohexylamine] + CCC(C)O
Conditions	mass density, 298.15 K [kg/m3]	mass density, 308.15 K [kg/m3]	mass density, 318.15 K [kg/m3]	mass density, 328.15 K [kg/m3]	refractive index, 298.15 K	refractive index, 308.15 K	refractive index, 318.15 K	refractive index, 328.15 K
[1], x2 = 0	865.2 ± 1.6	856.57 ± 1.6	847.67 ± 1.6	838.68 ± 1.6	–	–	–	–
[1], x2 = 0.1217	861.95 ± 1.6	853.4 ± 1.6	844.58 ± 1.6	835.58 ± 1.6	–	–	–	–
[1], x2 = 0.2333	858.47 ± 1.6	849.82 ± 1.6	840.98 ± 1.6	831.86 ± 1.6	–	–	–	–
[1], x2 = 0.3367	854.47 ± 1.6	845.86 ± 1.6	836.97 ± 1.6	827.75 ± 1.6	–	–	–	–
[1], x2 = 0.4323	850 ± 1.6	841.4 ± 1.6	832.5 ± 1.6	823.2 ± 1.6	–	–	–	–
[1], x2 = 0.5211	845.14 ± 1.6	836.51 ± 1.6	827.6 ± 1.6	818.27 ± 1.6	–	–	–	–
[1], x2 = 0.603	840.01 ± 1.6	831.35 ± 1.6	822.48 ± 1.6	813.01 ± 1.6	–	–	–	–
[1], x2 = 0.6803	834.52 ± 1.6	825.88 ± 1.6	817.02 ± 1.6	807.46 ± 1.6	–	–	–	–
[1], x2 = 0.7528	828.72 ± 1.6	820.14 ± 1.6	811.27 ± 1.6	801.72 ± 1.6	–	–	–	–
[1], x2 = 0.8202	822.7 ± 1.6	814.18 ± 1.6	805.33 ± 1.6	795.72 ± 1.6	–	–	–	–
[1], x2 = 0.8827	816.47 ± 1.6	807.88 ± 1.6	799.18 ± 1.6	789.6 ± 1.6	–	–	–	–
[1], x2 = 0.9426	809.83 ± 1.6	801.25 ± 1.6	792.58 ± 1.6	782.94 ± 1.6	–	–	–	–
[2], x2 = 0	–	–	–	–	1.45306 ± 0.0016	1.44812 ± 0.0016	1.4431 ± 0.0016	1.43809 ± 0.0016
[2], x2 = 0.1217	–	–	–	–	1.44931 ± 0.0016	1.44493 ± 0.0016	1.44047 ± 0.0016	1.43597 ± 0.0016
[2], x2 = 0.2333	–	–	–	–	1.44578 ± 0.0016	1.44144 ± 0.0016	1.43701 ± 0.0016	1.43258 ± 0.0016
[2], x2 = 0.3367	–	–	–	–	1.44206 ± 0.0016	1.43776 ± 0.0016	1.4334 ± 0.0016	1.42907 ± 0.0016
[2], x2 = 0.4323	–	–	–	–	1.43795 ± 0.0016	1.43374 ± 0.0016	1.42946 ± 0.0016	1.4252 ± 0.0016
[2], x2 = 0.5211	–	–	–	–	1.43338 ± 0.0016	1.42927 ± 0.0016	1.42503 ± 0.0016	1.42076 ± 0.0016
[2], x2 = 0.603	–	–	–	–	1.42849 ± 0.0016	1.42444 ± 0.0016	1.42021 ± 0.0016	1.41587 ± 0.0016
[2], x2 = 0.6803	–	–	–	–	1.42326 ± 0.0016	1.41926 ± 0.0016	1.41502 ± 0.0016	1.41065 ± 0.0016
[2], x2 = 0.7528	–	–	–	–	1.41783 ± 0.0016	1.41387 ± 0.0016	1.40967 ± 0.0016	1.40535 ± 0.0016
[2], x2 = 0.8202	–	–	–	–	1.41236 ± 0.0016	1.40841 ± 0.0016	1.40429 ± 0.0016	1.4001 ± 0.0016
[2], x2 = 0.8827	–	–	–	–	1.40689 ± 0.0016	1.40292 ± 0.0016	1.39886 ± 0.0016	1.39478 ± 0.0016
[2], x2 = 0.9426	–	–	–	–	1.40126 ± 0.0016	1.39719 ± 0.0016	1.39303 ± 0.0016	1.38886 ± 0.0016

CNC1CCCCC1 [N-methylcyclohexylamine] + CCCCC(C)O
Conditions	mass density, 298.15 K [kg/m3]	mass density, 308.15 K [kg/m3]	mass density, 318.15 K [kg/m3]	mass density, 328.15 K [kg/m3]	refractive index, 298.15 K	refractive index, 308.15 K	refractive index, 318.15 K	refractive index, 328.15 K
[1], x2 = 0	865.2 ± 1.6	856.57 ± 1.6	847.67 ± 1.6	838.68 ± 1.6	–	–	–	–
[1], x2 = 0.0915	861.23 ± 1.6	852.73 ± 1.6	843.97 ± 1.6	835.05 ± 1.6	–	–	–	–
[1], x2 = 0.1814	857.43 ± 1.6	848.96 ± 1.6	840.23 ± 1.6	831.33 ± 1.6	–	–	–	–
[1], x2 = 0.2693	853.71 ± 1.6	845.27 ± 1.6	836.53 ± 1.6	827.62 ± 1.6	–	–	–	–
[1], x2 = 0.3559	849.84 ± 1.6	841.4 ± 1.6	832.77 ± 1.6	823.77 ± 1.6	–	–	–	–
[1], x2 = 0.44	845.7 ± 1.6	837.27 ± 1.6	828.7 ± 1.6	819.71 ± 1.6	–	–	–	–
[1], x2 = 0.5256	841.05 ± 1.6	832.6 ± 1.6	824.08 ± 1.6	815.12 ± 1.6	–	–	–	–
[1], x2 = 0.608	836.06 ± 1.6	827.68 ± 1.6	819.22 ± 1.6	810.28 ± 1.6	–	–	–	–
[1], x2 = 0.6858	831.06 ± 1.6	822.74 ± 1.6	814.31 ± 1.6	805.47 ± 1.6	–	–	–	–
[1], x2 = 0.7668	825.76 ± 1.6	817.47 ± 1.6	809.16 ± 1.6	800.26 ± 1.6	–	–	–	–
[1], x2 = 0.8463	820.48 ± 1.6	812.27 ± 1.6	804.01 ± 1.6	795.06 ± 1.6	–	–	–	–
[1], x2 = 0.9235	815.36 ± 1.6	807.2 ± 1.6	798.91 ± 1.6	789.93 ± 1.6	–	–	–	–
[2], x2 = 0	–	–	–	–	1.45306 ± 0.0016	1.44812 ± 0.0016	1.4431 ± 0.0016	1.43809 ± 0.0016
[2], x2 = 0.0915	–	–	–	–	1.45049 ± 0.0016	1.44581 ± 0.0016	1.44104 ± 0.0016	1.43628 ± 0.0016
[2], x2 = 0.1814	–	–	–	–	1.4477 ± 0.0016	1.44305 ± 0.0016	1.43835 ± 0.0016	1.43364 ± 0.0016
[2], x2 = 0.2693	–	–	–	–	1.445 ± 0.0016	1.44038 ± 0.0016	1.43572 ± 0.0016	1.43103 ± 0.0016
[2], x2 = 0.3559	–	–	–	–	1.44229 ± 0.0016	1.4377 ± 0.0016	1.43309 ± 0.0016	1.42844 ± 0.0016
[2], x2 = 0.44	–	–	–	–	1.43938 ± 0.0016	1.43484 ± 0.0016	1.43029 ± 0.0016	1.42569 ± 0.0016
[2], x2 = 0.5256	–	–	–	–	1.43598 ± 0.0016	1.43151 ± 0.0016	1.42702 ± 0.0016	1.42247 ± 0.0016
[2], x2 = 0.608	–	–	–	–	1.43233 ± 0.0016	1.42789 ± 0.0016	1.42346 ± 0.0016	1.41895 ± 0.0016
[2], x2 = 0.6858	–	–	–	–	1.42866 ± 0.0016	1.42425 ± 0.0016	1.41985 ± 0.0016	1.41537 ± 0.0016
[2], x2 = 0.7668	–	–	–	–	1.42478 ± 0.0016	1.42041 ± 0.0016	1.41606 ± 0.0016	1.41162 ± 0.0016
[2], x2 = 0.8463	–	–	–	–	1.42103 ± 0.0016	1.4167 ± 0.0016	1.4124 ± 0.0016	1.40799 ± 0.0016
[2], x2 = 0.9235	–	–	–	–	1.41731 ± 0.0016	1.41299 ± 0.0016	1.4087 ± 0.0016	1.40428 ± 0.0016
